Several values for one entry are separate records, joined by “and”; a condition that tells them apart may be missing. Identical values can stand only once.

In one assay the test system is Shay's ulcer. Put plainly: Shay's ulcer (pylorus ligation) in rats. The note with it: for Ulcer index: total ulcerated area in forestomach. In kind it is in vivo, male Donryu strain rats. On the procedure:
Shay's ulcer: Groups of ten male Donryu strain rats each weighing 210 to 230 g were deprived of food for 48 hours. The pylorus of each rat was ligated according to the method of Shay et al [Gastroenterology, 5, 43-61 (1945)]. Each of the animals was allowed to stand abstained from food and water for further 14 hours and then sacrificed to remove its stomach. After collection of the gastric juice, the ulcerated area (mm^2) in the forestomach of each rat was measured under a dissecting microscope (10×). The total area (mm^2) of all the lesions of each rat was indicated as an ulcer index. Test medicine samples were given orally immediately after the pylorus ligation.

The test system of assay [1] is Indomethacin-induced ulcer. Put plainly: Indomethacin-induced ulcer in rats. Format: in vivo, male Donryu strain rats. The note with it: for Ulcer index: Indomethacin (25 mg/kg s.c.)-induced ulcer, 300 mg/kg P.O. ten minutes before pylorus ligation, total length of lesions. As for the experimental part:
Indomethacin-induced ulcer: Groups of ten male Donryu strain rats each weighing 200 to 215 g were deprived of food for 24 hours. Then, the pylorus was ligated under ether anethesia, after which indomethacin was administered subcutaneously in an amount of 25 mg/kg to each rat. Seven hours after the administration, each of the animals was sacrificed under ether anethesia to remove its stomach, followed by immersion in a 1% formalin solution for ten minutes. The stomach which had been semi-fixed was incised along its greater curvature, and the length (mm) of each lesion formed in the mucous membrane was measured under a dissecting microscope (10×). The total length (mm) of all the lesions of each rat was indicated as an ulcer index. Test medicine samples were given orally ten minutes before the pylorus legation.

The mark [2] stands for this setting: rats, 1,000 mg/kg P.O. immediately after pylorus ligation.
Where [3] appears, read: Indomethacin-induced ulcer, 300 mg/kg P.O.

One may read the % Inhibition as the change of the read-out against control, counted positive when it falls. A higher % Inhibition goes with strong suppression. As for N-propionyl-L-carnosine aluminum salt, the “% Inhibition” value in the assay with Shay's ulcer (rats, 1,000 mg/kg P.O.) came to 74.2%. The Ulcer index with Shay's ulcer (setting [2]) was 0.8 ± 0.8 mm^2.
One may read the inhibition as how much of the control response was suppressed. With `CC(=O)N[C@@H](CCC(N)=O)C(=O)O.[Al]` [N-Acetyl-L-glutamine aluminum, N-acetyl-L-glutamine aluminum], 2000 mg/kg produced 69% inhibition in the assay with Shay's ulcer (Rattus norvegicus, po, rats, 2,000 mg/kg P.O.). The “% Inhibition” value with Shay's ulcer (rats, 2,000 mg/kg P.O.) stood at 67.7%. The Ulcer index with Shay's ulcer (rats, 2,000 mg/kg P.O. immediately after pylorus ligation) was 0.9 ± 0.7 mm^2 and 1.0 ± 0.6 mm^2.
For `NCCC(=O)N[C@@H](Cc1cnc[nH]1)C(=O)O` [L-Carnosine, L-carnosine], in assay [1], the Ulcer index came to 17.1 ± 3.1 mm. In assay [1] (setting [3]), the “% Inhibition” value is ~ 0%.
Consider `NC(=O)CC[C@H](N)C(=O)O` [L-Glutamine, L-glutamine], for which the Ulcer index in assay [1] was 9.7 ± 3.9 mm. For the same molecule, testing at 300 mg/kg in assay [1] (Rattus norvegicus, po, Indomethacin-induced ulcer, 300 mg/kg P.O.) gave an inhibition of 42.3%.
As for N-acetyl-L-carnosine aluminum salt [B], the “% Inhibition” value in the assay on Shay's ulcer (rats, 1,000 mg/kg P.O.) was 72.4%; in assay [1] (setting [3]) it was 61.3%. Also, the Ulcer index in the assay with Shay's ulcer (setting [2]) worked out at 0.8 ± 0.6 mm^2; in assay [1] it was 6.5 ± 2.5 mm.
In the case of aluminum sucrose sulfate, the “% Inhibition” value is 72.4% and 71.0% with Shay's ulcer (rats, 1,000 mg/kg P.O.); 56.0% in assay [1] (setting [3]). The Ulcer index with Shay's ulcer (setting [2]) is 0.8 ± 0.6 mm^2 and 0.9 ± 0.5 mm^2; in assay [1] it was 7.4 ± 2.8 mm.
With N-acetyl-DL-carnosine aluminum salt, the “% Inhibition” value in the assay with Shay's ulcer (rats, 1,000 mg/kg P.O.) was determined as 75.9%; in assay [1] (setting [3]), 60.1%. For the same molecule, the Ulcer index stood at 0.7 ± 0.8 mm^2 in the assay with Shay's ulcer (setting [2]) and 6.7 ± 3.0 mm in assay [1].
